Experimental data published in ChEMBL document CHEMBL1143039, “Further modification on phenyl acetic acid based quinolines as liver X receptor modulators” (Bioorg Med Chem, 2007).

Experiments:
Mus musculus [1] = assay: Reduction in aortic arch lesion area in C57BL/6 ApoE knockout mouse at 10 mg/kg, po for 12 weeks; assay type: functional, Pharyngeal arch artery
Mus musculus [2] = assay: Reduction of aortic arch lesion in C57BL/6 ApoE knockout mouse at 10 mg/kg, po for 12 weeks; assay type: functional, Pharyngeal arch artery; parameters: scale not given: the % may be the effect or the level left
Mus musculus [3] = assay: Increase in plasma triglyceride level in C57BL/6 ApoE knockout mouse at 10 mg/kg, po for 12 weeks; assay type: functional
[4] = molecular target: T1, Oxysterols receptor LXR-beta (Homo sapiens, UniProt P55055); assay: biochemical
T1 sequence (P55055 whole entry): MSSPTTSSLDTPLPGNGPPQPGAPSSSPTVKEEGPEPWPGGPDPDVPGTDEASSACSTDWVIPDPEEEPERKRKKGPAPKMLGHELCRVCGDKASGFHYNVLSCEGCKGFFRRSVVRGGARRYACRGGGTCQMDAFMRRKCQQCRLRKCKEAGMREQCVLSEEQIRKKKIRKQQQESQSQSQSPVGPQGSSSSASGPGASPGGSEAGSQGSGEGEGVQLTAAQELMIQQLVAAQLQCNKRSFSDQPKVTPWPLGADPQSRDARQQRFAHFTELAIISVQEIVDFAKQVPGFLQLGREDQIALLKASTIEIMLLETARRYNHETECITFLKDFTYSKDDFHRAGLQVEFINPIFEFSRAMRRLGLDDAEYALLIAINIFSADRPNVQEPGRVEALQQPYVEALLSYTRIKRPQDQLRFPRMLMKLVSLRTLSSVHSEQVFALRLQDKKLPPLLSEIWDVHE
Description: Displacement of [3H]T0901317 from human recombinant LXRbeta expressed in CHO cells

[5] = molecular target: T2, Oxysterols receptor LXR-alpha (Homo sapiens, UniProt Q13133); assay: biochemical
T2 sequence (Q13133 whole entry): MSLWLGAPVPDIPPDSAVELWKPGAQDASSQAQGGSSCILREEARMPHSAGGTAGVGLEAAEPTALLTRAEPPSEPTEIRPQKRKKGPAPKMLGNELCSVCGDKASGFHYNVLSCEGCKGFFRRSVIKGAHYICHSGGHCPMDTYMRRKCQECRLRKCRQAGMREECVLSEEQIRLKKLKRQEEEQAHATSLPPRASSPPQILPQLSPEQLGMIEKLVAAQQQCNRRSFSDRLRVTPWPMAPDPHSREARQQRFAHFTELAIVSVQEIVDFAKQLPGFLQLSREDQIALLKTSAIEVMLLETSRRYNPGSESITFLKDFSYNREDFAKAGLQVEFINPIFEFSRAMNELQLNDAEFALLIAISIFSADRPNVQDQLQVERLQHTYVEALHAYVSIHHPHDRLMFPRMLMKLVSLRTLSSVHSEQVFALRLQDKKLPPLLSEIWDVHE
Description: Displacement of [3H]T-0901317 from human recombinant LXRalpha expressed in CHO cells

[6] = Stability in mouse liver microsomes; assay type: ADME, Microsome
[7] = Half life in C57BL/6 mouse at 1 mg/kg, iv; assay type: ADME, organism-based; parameters: dose 1 mg/kg, route intravenous; conditions: in vivo
[8] = AUC (infinity) in C57BL/6 mouse at 10 mg/kg, po; assay type: ADME, organism-based; parameters: time infinity, dose 10 mg/kg, route oral; conditions: plasma
[9] = Half life in C57BL/6 mouse at 10 mg/kg, po; assay type: ADME, organism-based; parameters: dose 10 mg/kg, route oral; conditions: in vivo
[10] = molecular target: T2, Oxysterols receptor LXR-alpha; assay: Agonist activity at human recombinant LXRalpha expressed in Huh7 cells by GAL4 transactivation assay; assay type: functional, cell-based, Huh-7
[11] = molecular target: T3, Peroxisome proliferator-activated receptor gamma (Homo sapiens, UniProt P37231); assay: Agonist activity at human recombinant PPARgamma by GAL4 transactivation assay; assay type: functional
T3 sequence (P37231 whole entry): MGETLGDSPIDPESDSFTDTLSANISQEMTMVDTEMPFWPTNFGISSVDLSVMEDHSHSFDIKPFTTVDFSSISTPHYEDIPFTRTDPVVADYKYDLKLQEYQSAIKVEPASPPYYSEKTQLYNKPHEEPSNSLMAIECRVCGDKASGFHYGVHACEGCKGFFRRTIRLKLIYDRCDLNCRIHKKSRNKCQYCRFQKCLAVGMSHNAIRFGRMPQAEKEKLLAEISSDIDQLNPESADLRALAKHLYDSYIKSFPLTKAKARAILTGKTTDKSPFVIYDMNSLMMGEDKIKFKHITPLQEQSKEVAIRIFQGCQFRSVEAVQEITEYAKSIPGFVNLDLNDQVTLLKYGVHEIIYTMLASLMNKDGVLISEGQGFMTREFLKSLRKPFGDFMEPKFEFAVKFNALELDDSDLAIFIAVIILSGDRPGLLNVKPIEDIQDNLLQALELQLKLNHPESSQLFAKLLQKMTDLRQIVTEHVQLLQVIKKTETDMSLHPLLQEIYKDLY

[12] = Cmax in C57BL/6 mouse at 10 mg/kg, po; assay type: ADME, organism-based; parameters: dose 10 mg/kg, route oral; conditions: in vivo
[13] = Tmax in C57BL/6 mouse at 10 mg/kg, po; assay type: ADME, organism-based; parameters: dose 10 mg/kg, route oral; conditions: in vivo
[14] = Clearance in C57BL/6 mouse at 1 mg/kg, iv; assay type: ADME, organism-based; parameters: dose 1 mg/kg, route intravenous; conditions: in vivo
THP-1 [15] = assay: Increase in ABCA1 gene expression in THP1 cells relative to TO901317; assay type: functional, Homo sapiens
[16] = molecular target: T4, Peroxisome proliferator-activated receptor alpha (Homo sapiens, UniProt Q07869); assay: Agonist activity at human recombinant PPARalpha by GAL4 transactivation assay; assay type: functional
T4 sequence (Q07869 whole entry): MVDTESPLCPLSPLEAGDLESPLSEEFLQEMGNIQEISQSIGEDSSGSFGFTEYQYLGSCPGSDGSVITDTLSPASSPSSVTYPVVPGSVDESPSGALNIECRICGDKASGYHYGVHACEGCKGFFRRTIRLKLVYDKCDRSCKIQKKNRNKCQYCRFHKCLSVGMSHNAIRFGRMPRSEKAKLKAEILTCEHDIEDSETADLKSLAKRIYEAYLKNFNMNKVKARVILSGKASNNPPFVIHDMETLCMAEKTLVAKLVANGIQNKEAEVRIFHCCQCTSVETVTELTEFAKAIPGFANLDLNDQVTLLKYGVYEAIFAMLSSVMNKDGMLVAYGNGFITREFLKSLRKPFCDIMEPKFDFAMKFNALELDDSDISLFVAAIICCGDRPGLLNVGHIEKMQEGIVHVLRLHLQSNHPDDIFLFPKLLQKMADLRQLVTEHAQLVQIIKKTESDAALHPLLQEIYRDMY

Huh-7 [17] = assay: Increase in SREBP1c gene expression in Huh7 cells; assay type: functional, cell-based; conditions: Homo sapiens
[18] = molecular target: T5, Oxysterols receptor LXR-beta (Homo sapiens) (UniProt P55055); assay: Agonist activity at human recombinant LXRbeta expressed in Huh7 cells by GAL4 transactivation assay relative to TO901317; assay type: functional, cell-based; conditions: Huh-7
T5 sequence (whole entry): T1 sequence (P55055 whole entry)

[19] = molecular target: T1, Oxysterols receptor LXR-beta
Description: Agonist activity at human recombinant LXRbeta expressed in CHO cells

Huh-7 [20] = assay: Increase in SREBP1c gene expression in Huh7 cells relative to TO901317; assay type: functional, Homo sapiens
[21] = molecular target: T6, Peroxisome proliferator-activated receptor alpha (Homo sapiens) (UniProt Q07869); assay: Agonist activity at human recombinant PPARalpha by GAL4 transactivation assay relative to WY-14643; assay type: functional
T6 sequence (whole entry): T4 sequence (Q07869 whole entry)

[22] = molecular target: T7, Peroxisome proliferator-activated receptor gamma (Homo sapiens) (UniProt P37231); assay: Agonist activity at human recombinant PPARgamma by GAL4 transactivation assay relative to rosiglitazone; assay type: functional
T7 sequence (whole entry): T3 sequence (P37231 whole entry)

[23] = molecular target: T8, Peroxisome proliferator-activated receptor delta (Homo sapiens, UniProt Q03181); assay: Agonist activity at human recombinant PPARdelta by GAL4 transactivation assay; assay type: functional
T8 sequence (Q03181 whole entry): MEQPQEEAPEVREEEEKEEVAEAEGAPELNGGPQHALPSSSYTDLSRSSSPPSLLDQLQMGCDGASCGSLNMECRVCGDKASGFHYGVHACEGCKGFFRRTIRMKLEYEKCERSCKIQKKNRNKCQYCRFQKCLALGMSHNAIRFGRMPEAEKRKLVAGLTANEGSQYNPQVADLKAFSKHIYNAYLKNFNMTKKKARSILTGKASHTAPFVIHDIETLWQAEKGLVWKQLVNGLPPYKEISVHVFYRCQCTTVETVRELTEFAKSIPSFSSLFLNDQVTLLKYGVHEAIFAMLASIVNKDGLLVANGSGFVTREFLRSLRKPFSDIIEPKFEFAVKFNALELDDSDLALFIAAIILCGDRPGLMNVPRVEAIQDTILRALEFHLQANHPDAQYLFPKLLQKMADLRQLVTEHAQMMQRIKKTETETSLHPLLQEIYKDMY

[24] = Bioavailability in C57BL/6 mouse at 10 mg/kg, po; assay type: ADME, organism-based; conditions: in vivo
Liver microsomes = assay: Stability in human liver microsomes; assay type: ADME, Microsome
[25] = molecular target: T9, Oxysterols receptor LXR-alpha (Homo sapiens) (UniProt Q13133); assay: Agonist activity at human recombinant LXRalpha expressed in Huh7 cells by GAL4 transactivation assay relative to TO901317; assay type: functional, cell-based; conditions: Huh-7
T9 sequence (whole entry): T2 sequence (Q13133 whole entry)

THP-1 [26] = assay: Increase in ABCA1 gene expression in THP1 cells; assay type: functional, cell-based; conditions: Homo sapiens
[27] = Volume of distribution in C57BL/6 mouse at 1 mg/kg, iv; assay type: ADME, organism-based; parameters: dose 1 mg/kg, route intravenous; conditions: in vivo, read-out: Vss
[28] = molecular target: T1, Oxysterols receptor LXR-beta; assay: Agonist activity at human recombinant LXRbeta expressed in Huh7 cells by GAL4 transactivation assay; assay type: functional, cell-based, Huh-7

| SMILES | aortic arch lesion area (Mus musculus [1]) [%] | Activity (Mus musculus [2]) [%] | Activity (Mus musculus [3]) [mg/dL] | IC50 [4] [nM] | IC50 [5] [nM] | Stability [6] | half-life [7] [h] | AUC(0-inf) [8] [ng·h/mL] | half-life [9] [h] | EC50 [10] [nM] | EC50 [11] [nM] | Cmax [12] [ng/mL] | Tmax [13] [h] | clearance [14] [mL/min/kg] | Activity (THP-1 [15]) [%] | EC50 [16] [nM] | EC50 (Huh-7 [17]) [nM] | Activity [18] [%] | EC50 [19] [nM] | Activity (Huh-7 [20]) [%] | further results |
| --- | --- | --- | --- | --- | --- | --- | --- | --- | --- | --- | --- | --- | --- | --- | --- | --- | --- | --- | --- | --- | --- |
| O=C(O)Cc1cccc(OCCCN(Cc2cccc(C(F)(F)F)c2Cl)CC(c2ccccc2)c2ccccc2)c1 | 1.99 | 79 | 2.95 |  |  |  |  |  |  |  |  |  |  |  |  |  |  |  |  |  |  |
| O=C(O)/C=C/c1ccc(CNc2cccc(-c3c(C(=O)c4ccccc4)cnc4c(C(F)(F)F)cccc34)c2)cc1 |  |  |  | > 10000 | > 10000 |  |  |  |  |  |  |  |  |  |  |  |  |  |  |  |  |
| NC(=O)c1cnc2c(C(F)(F)F)cccc2c1-c1cccc(NCc2ccc(CC(=O)O)cc2)c1 |  |  |  | > 10000 | > 10000 |  |  |  |  |  |  |  |  |  |  |  |  |  |  |  |  |
| O=C(O)Cc1ccc(CNc2cccc(-c3c(Cc4ccccc4)cnc4c(Cl)cccc34)c2)cc1 | 4.47 | 53 | 64.56 | 1.4 | 5 | Stable | 1.8 | 2580 | 1.2 | 121 | 506 | 2500 | 0.25 | 37 | 162 | 2050 | 75 | 67 | 23 | 137 | Activity [21]: 12%; Activity [22]: 50.6%; EC50 [23]: 631 nM; bioavailability [24]: 57%; Stability (Liver microsomes): Stable; Activity [25]: 89%; EC50 (THP-1 [26]): 81 nM; Vd [27]: 1.8 L/kg; EC50 [28]: 54 nM |
| Cc1cccc2c(-c3cccc(NCc4ccc(CC(=O)O)cc4)c3)c(Cc3ccccc3)cnc12 | 4.09 | 57 | 15.2 | 5 | 21 | Stable | 1.6 | 3580 | 1.2 | 467 | 1030 | 4190 | 0.25 | 25 | 139 | 1770 | 51.4 | 75 | 90 | 114 | Activity [21]: 7.5%; Activity [22]: 46.6%; EC50 [23]: 1970 nM; bioavailability [24]: 53%; Stability (Liver microsomes): Stable; Activity [25]: 101%; EC50 (THP-1 [26]): 438 nM; Vd [27]: 1.2 L/kg; EC50 [28]: 267 nM |
